Data taken from patent US10703764B2, “Benzopiperazine compositions as BET bromodomain inhibitors” (FORMA Therapeutics, Inc., priority 2013, dated 2020).

Legend:
BRD4 BD1 = target: T1, BRD4 BD1 (Homo sapiens, UniProt O60885); assay: AlphaScreen binding assay, BRD4 Bromodomain 1
T1 construct: made in house
Method in brief: (§1)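 An AlphaScreen competition format was used with His-BRD4 BD1 or BD2 and biotin-H4 K5/8/12/16-acetyl peptide, each at matched final levels of 50 nM (BD1) or 100 nM (BD2). Incubation in HEPES/NaCl buffer with 0.1% BSA and 0.01% Triton X-100 ran ≥1 h before IC50 determination.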

BRD4 BD2 = target: T2, BRD4 BD2 (Homo sapiens, UniProt O60885); assay: AlphaScreen binding assay, BRD4 Bromodomain 2
T2 construct: made in house
Method in brief: as §1

MV4-11 cells = assay: Oncology cell growth assay (3-day proliferation, CellTiter-Glo); format: cell-based; conditions: Homo sapiens, MV4-11, 72 h, AML cell line MV4-11, 72 hours, compounds grouped by IC50 range, read-out: MV4-11 IC50 (inhibition of proliferation, gIC50)
Method in brief: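 MV4-11 AML cells (RPMI 1640, 10% FBS) plated at 3000 cells/well and exposed 72 h to compound at final 10 to 0.0045 μM (3-fold series). Viability read by CellTiter-Glo luminescence; gIC50 from four-parameter logistic fit between DMSO control and no-cell background.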

Row | IC50 (BRD4 BD1) | IC50 (BRD4 BD2) | IC50 (MV4-11 cells) | Compound
1 | 100 to 1000 nM | 50 to 500 nM | 100 to 500 nM | CC(C)OC(=O)N1C[C@H](C)N(C(=O)C2CC2)c2ccc(-c3cnn(CC4COC4)c3)cc21 [Example I-643]
2 | 100 to 1000 nM | 50 to 500 nM | > 500 nM | COC(=O)N1c2ccc(-c3cnn(CC4COC4)c3)cc2N(C(=O)OC(C)C)C[C@@H]1C [Example I-644]
3 | 100 to 1000 nM | 50 to 500 nM | > 500 nM | CC(=O)N1c2ccc(-c3cnn(C(C)C)c3)cc2N(C(=O)C2CC2)C[C@@H]1C [Example I-647]
4 | 100 to 1000 nM | 50 to 500 nM | > 500 nM | CC(=O)N1c2ccc(-c3cnn(CC4(F)COC4)c3)cc2N(C(=O)C2CC2)C[C@@H]1C [Example I-649]
5 | 100 to 1000 nM | 50 to 500 nM | 100 to 500 nM | CC(=O)N1c2ccc(-c3cnn(CCC#N)c3)cc2N(C(=O)C2CC2)C[C@@H]1C [Example I-650]
6 | 100 to 1000 nM | 50 to 500 nM | > 500 nM | CC(=O)N1c2ccc(-c3cnn(CC(F)F)c3)cc2N(C(=O)C2CC2)C[C@@H]1C [Example I-651]
7 | 100 to 1000 nM | 50 to 500 nM | > 500 nM | CC(=O)N1c2ccc(-c3cnn(Cc4ccnn4C)c3)cc2N(C(=O)C2CC2)C[C@@H]1C [Example I-652]
8 | 100 to 1000 nM | 50 to 500 nM | 100 to 500 nM | CC(=O)N1c2ccc(-c3cnn(C(C)C)c3)cc2N(C(=O)OC(C)C)C[C@@H]1C [Example I-653]
9 | 100 to 1000 nM | 50 to 500 nM | 100 to 500 nM | CC(=O)N1c2ccc(-c3cnn(CC(=O)N4CCOCC4)c3)cc2N(C(=O)OC(C)C)C[C@@H]1C [Example I-654]
10 | 100 to 1000 nM | 50 to 500 nM | 100 to 500 nM | CC(=O)N1c2ccc(-c3cnn(CC4CCC4)c3)cc2N(C(=O)C2CC2)C[C@@H]1C [Example I-656]
11 | 100 to 1000 nM | 50 to 500 nM | 100 to 500 nM | CC(=O)N1c2ccc(-c3cnn(CC4CCOCC4)c3)cc2N(C(=O)C2CC2)C[C@@H]1C [Example I-657]
12 | 100 to 1000 nM | 50 to 500 nM | > 500 nM | CC(=O)N1c2ccc(-c3cnn(CCN4CCCS4(=O)=O)c3)cc2N(C(=O)C2CC2)C[C@@H]1C [Example I-659]
13 | 100 to 1000 nM | 50 to 500 nM | > 500 nM | CC(=O)N1c2ccc(-c3cnn(CC4(CO)COC4)c3)cc2N(C(=O)C2CC2)C[C@@H]1C [Example I-662]
14 | 100 to 1000 nM | 50 to 500 nM | 100 to 500 nM | CC(=O)N1c2ccc(-c3cnn(Cc4ccno4)c3)cc2N(C(=O)C2CC2)C[C@@H]1C [Example I-663]
15 | 100 to 1000 nM | 50 to 500 nM | 100 to 500 nM | CCNC(=O)Cn1cc(-c2ccc3c(c2)N(C(=O)OC(C)C)C[C@H](C)N3C(C)=O)cn1 [Example I-664]
16 | 100 to 1000 nM | 50 to 500 nM | 100 to 500 nM | CC(=O)N1c2ccc(-c3cnn(Cc4cc(C)on4)c3)cc2N(C(=O)OC(C)C)C[C@@H]1C [Example I-665]
17 | 100 to 1000 nM | 50 to 500 nM | 100 to 500 nM | CC(=O)N1c2ccc(-c3cnn(CCF)c3)cc2N(C(=O)OC(C)C)C[C@@H]1C [Example I-666]
18 | 100 to 1000 nM | 50 to 500 nM | 100 to 500 nM | CC(=O)N1c2ccc(-c3cnn(CC(=O)N4CCC4)c3)cc2N(C(=O)OC(C)C)C[C@@H]1C [Example I-667]
19 | 100 to 1000 nM | 50 to 500 nM | 100 to 500 nM | CC(=O)N1c2ccc(-c3cnn(Cc4noc(C)n4)c3)cc2N(C(=O)C2CC2)C[C@@H]1C [Example I-668]
20 | 100 to 1000 nM | 50 to 500 nM | > 500 nM | CC(=O)N1c2ccc(-c3cnn(Cc4cc(C)on4)c3)cc2N(C(=O)C2CC2)C[C@@H]1C [Example I-669]

Row | IC50 (BRD4 BD1) | IC50 (BRD4 BD2) | IC50 (MV4-11 cells) | Compound
21 | 100 to 1000 nM | 50 to 500 nM | 100 to 500 nM | CC(=O)N1c2ccc(-c3cnn(CC(C)C)c3)cc2N(C(=O)C2CC2)CC1C (stereo not drawn) [Example I-670]
22 | 100 to 1000 nM | 50 to 500 nM | 100 to 500 nM | CC(=O)N1c2ccc(-c3cnn(CCF)c3)cc2N(C(=O)C2CC2)C[C@@H]1C [Example I-671]
23 | 100 to 1000 nM | 50 to 500 nM | 100 to 500 nM | CC(=O)N1c2ccc(-c3cnn(CCCO)c3)cc2N(C(=O)C2CC2)C[C@@H]1C [Example I-673]
24 | 100 to 1000 nM | 50 to 500 nM | 100 to 500 nM | CC(=O)N1c2ccc(-c3cnn(Cc4nonc4C)c3)cc2N(C(=O)OC(C)C)C[C@@H]1C [Example I-677]
25 | 100 to 1000 nM | 50 to 500 nM | 100 to 500 nM | CC(=O)N1c2ccc(-c3cnn(CC4CC4(F)F)c3)cc2N(C(=O)OC(C)C)C[C@@H]1C (stereo partly drawn) [Example I-678]
26 | 100 to 1000 nM | 50 to 500 nM | 100 to 500 nM | CC(=O)N1c2ccc(-c3cnn(CCC#N)c3)cc2N(C(=O)OC(C)C)C[C@@H]1C [Example I-679]
27 | 100 to 1000 nM | 50 to 500 nM | 100 to 500 nM | CC(=O)N1c2ccc(-c3cnn(Cc4ccnn4C)c3)cc2N(C(=O)OC(C)C)C[C@@H]1C [Example I-680]
28 | 100 to 1000 nM | 50 to 500 nM | 100 to 500 nM | CC(=O)N1c2ccc(-c3cnn(Cc4ccn(C)n4)c3)cc2N(C(=O)C2CC2)C[C@@H]1C [Example I-682]
29 | 100 to 1000 nM | 50 to 500 nM | 100 to 500 nM | CC(=O)N1c2ccc(-c3cnn(Cc4cncs4)c3)cc2N(C(=O)C2CC2)C[C@@H]1C [Example I-686]
30 | 100 to 1000 nM | < 50 nM | 100 to 500 nM | CC(=O)N1c2ccc(-c3cnn(C[C@@H]4CCNC4)c3)cc2N(C(=O)OC(C)C)C[C@@H]1C [Example I-687]
31 | 100 to 1000 nM | 50 to 500 nM | 100 to 500 nM | CC(=O)N1c2ccc(-c3cnn(C[C@H]4CCNC4)c3)cc2N(C(=O)OC(C)C)C[C@@H]1C [Example I-688]
32 | 100 to 1000 nM | 50 to 500 nM | > 500 nM | CC(C)OC(=O)N1C[C@H](C)N(C(=O)C2CC2)c2ccc(-c3cnn(C[C@@H]4CCNC4)c3)cc21 [Example I-689]
33 | 100 to 1000 nM | 50 to 500 nM | > 500 nM | CC(C)OC(=O)N1C[C@H](C)N(C(=O)C2CC2)c2ccc(-c3cnn(C[C@H]4CCNC4)c3)cc21 [Example I-690]
34 | 100 to 1000 nM | 50 to 500 nM | > 500 nM | COC(=O)N1c2ccc(-c3cnn(C[C@H]4CCNC4)c3)cc2N(C(=O)OC(C)C)C[C@@H]1C [Example I-692]
35 | 1000 to 10000 nM | 50 to 500 nM | > 500 nM | CC(=O)N1c2ccc(-c3ccc(S(C)(=O)=O)cc3)cc2N(C(=O)c2cc3cnccc3[nH]2)CC1C (stereo not drawn) [Example I-778]
36 | 1000 to 10000 nM | 50 to 500 nM | > 500 nM | CC(=O)N1c2ccc(-c3ccc(S(C)(=O)=O)cc3)cc2N(C(=O)C2CC2)C[C@@H]1C [Example I-781]
37 | 1000 to 10000 nM | 50 to 500 nM | > 500 nM | CC(=O)N1c2ccc(-c3ccc(S(C)(=O)=O)cc3)cc2N(C(=O)c2cc3cc(O)ccc3[nH]2)CC1C (stereo not drawn) [Example I-786]
38 | 100 to 1000 nM | < 50 nM | 100 to 500 nM | CC(=O)N1c2ccc(-c3ccc(S(C)(=O)=O)cc3)cc2N(C(=O)c2cc3cccnc3[nH]2)CC1C (stereo not drawn) [Example I-789]
39 | 1000 to 10000 nM | 50 to 500 nM | > 500 nM | CC(=O)N1c2ccc(-c3ccc4ncccc4c3)cc2N(C(=O)COc2ccccc2)C[C@@H]1C [Example I-791]
